# Experiments:
# [1] = target: HER2 (human epidermal growth factor receptor 2) (Homo sapiens (Human), UniProt P04626); assay: In vitro kinase inhibitory activity, HER-2; format: biochemical
# Description: (§1) Stop buffer was prepared from 100 mM HEPES, pH 7.5, 0.015% Brij-35, 0.2% Coating Reagent #3, and 50 mM EDTA.
# Kinase reaction was performed according to the following procedures: (1) 2.5× kinase solution was prepared by adding kinase into 1× kinase base buffer; (2) 2.5× peptide solution was prepared by adding FAM-labeled peptide and ATP into 1× kinase base buffer; (3) 2.5× kinase solution (10 μL) was added to each well of the 384-well assay plate containing 5 μL of compound in 10% DMSO and then the assay plate was incubated at room temperature for 10 minutes; (4) 2.5× peptide solution (10 μL) was added to each well of the 384-well assay plate; and (5) stop buffer (25 μL) was added to stop the kinase reaction after incubation at 28° C. for a specified period of time. […]
# (§2) Conversion data were copied, and then converted to inhibition values with the following formula: percent inhibition=(max−conversion)/(max−min)*100 where “max” stands for the DMSO control value, “conversion” stands for the sample value and “[…]” stands for the no-kinase control value. The data were fitted in XLfit to obtain IC50 values.
# [2] = target: EGFR (human epidermal growth factor receptor) (Homo sapiens (Human), UniProt P00533); assay: In vitro kinase inhibitory activity, EGFR; format: biochemical
# Sequence of EGFR (human epidermal growth factor receptor) (P00533 25-1210): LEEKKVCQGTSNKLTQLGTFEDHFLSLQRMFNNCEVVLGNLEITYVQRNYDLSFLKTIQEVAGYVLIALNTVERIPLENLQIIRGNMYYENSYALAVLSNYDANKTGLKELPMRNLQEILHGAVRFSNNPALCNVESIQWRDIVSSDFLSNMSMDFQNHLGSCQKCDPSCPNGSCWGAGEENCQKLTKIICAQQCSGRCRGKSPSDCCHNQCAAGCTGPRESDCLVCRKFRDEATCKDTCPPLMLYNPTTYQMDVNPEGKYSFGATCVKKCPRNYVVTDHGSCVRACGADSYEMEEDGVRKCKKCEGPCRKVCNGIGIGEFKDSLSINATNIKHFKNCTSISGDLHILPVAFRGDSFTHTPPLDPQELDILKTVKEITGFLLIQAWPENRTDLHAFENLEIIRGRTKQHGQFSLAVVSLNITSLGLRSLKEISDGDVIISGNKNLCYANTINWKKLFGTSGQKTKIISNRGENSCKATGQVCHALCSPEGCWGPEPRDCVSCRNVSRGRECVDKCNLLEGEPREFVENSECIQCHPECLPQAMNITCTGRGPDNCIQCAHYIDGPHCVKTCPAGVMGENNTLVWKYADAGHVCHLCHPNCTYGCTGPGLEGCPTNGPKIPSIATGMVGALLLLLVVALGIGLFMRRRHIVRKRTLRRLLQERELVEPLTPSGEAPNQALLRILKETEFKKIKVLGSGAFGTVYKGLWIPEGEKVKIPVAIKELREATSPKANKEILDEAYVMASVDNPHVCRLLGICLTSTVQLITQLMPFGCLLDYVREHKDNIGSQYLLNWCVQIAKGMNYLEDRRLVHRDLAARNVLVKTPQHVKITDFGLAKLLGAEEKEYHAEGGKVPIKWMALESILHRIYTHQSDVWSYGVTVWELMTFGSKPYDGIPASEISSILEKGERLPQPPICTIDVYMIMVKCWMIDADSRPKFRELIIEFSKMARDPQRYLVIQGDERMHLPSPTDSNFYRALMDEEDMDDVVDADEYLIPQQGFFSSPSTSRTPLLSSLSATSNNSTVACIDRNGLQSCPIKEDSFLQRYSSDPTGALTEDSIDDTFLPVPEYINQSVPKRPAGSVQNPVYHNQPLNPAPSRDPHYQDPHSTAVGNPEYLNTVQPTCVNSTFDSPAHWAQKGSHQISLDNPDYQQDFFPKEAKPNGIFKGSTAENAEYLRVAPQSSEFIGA
# Description: as §1
# (§3) Kinase reaction was performed according to the following procedures: (1) 2.5× kinase solution was prepared by adding kinase into 1× kinase base buffer; (2) 2.5× peptide solution was prepared by adding FAM-labeled peptide and ATP into 1× kinase base buffer; (3) 2.5× kinase solution (10 μL) was added to each well of the 384-well assay plate containing 5 μL of compound in 10% DMSO and then the assay plate was incubated at room temperature for 10 minutes; (4) 2.5× peptide solution (10 μL) was added to each well of the 384-well assay plate; and (5) stop buffer (25 μL) was added to stop the kinase reaction after incubation at 28° C. for a specified period of time.
# (§4) Multifunctional microplate reader (BMG LABTECH, PHER Astar FS) with a 320 nm excitation wavelength was used to read and collected the data of by absorbing light at […], which was converted from the rate of 665 signal/620 signal.
# as §2
# [3] = Rat PK (pharmacokinetics after iv and po administration); format: in vivo; details: male, SD, plasma; for Vd: read-out: Vss; for bioavailability: po 5 vs iv 2 (g/kg [sic]; mg/kg in method), read-out: F (bioavailability)
# Excerpt: Materials used include Propranolol (internal standard), methyl alcohol, ammonium acetate, K2EDTA (potassium ethylenediaminetetraacetate), methane acid, acetonitrile, MTBE (methyl tert-butyl ether), Cremophor EL (polyoxyethylated castor oil), KolliphorHS 15 (polyethylene glycol 12-hydroxystearate), DMSO (dimethylsulfoxide), PEG400 (polyethylene glycol 400) and SD rat (male, 180-220 g, 7-8 weeks old, purchased from Hunan Slack King of Laboratory Animal Co., Ltd.), all of which are commercially available.
# Each test compound prepared in above examples was completely dissolved in a mixture of 5% DMSO, 5% KolliphorHS 15 and 90% saline.
# (1) The test sample stock solution was prepared by dissolving an accurately weighed test sample in DMSO followed by dilution to the concentration of 1 mg/mL with acetonitrile. The stock solution was stored under the condition of −20° C. for later use.
# (2) Internal standard solution was prepared by diluting a certain amount of the Propranolol stock solution in the concentration of 1 mg/mL to 100 ng/mL with water.
# Samples treated with liquid-liquid extraction and chromatographic separation were analyzed by triple quadrupole tandem mass spectrometer in multiple reaction monitoring (MRM) mode for quantitative analysis.
# Pretreatment of plasma sample was performed according to the following procedures: (1) plasma sample (30 μL) was precisely measured, and internal standard (250 μL) was then added to the plasma sample which was then mixed by vortexing; (2) the sample was extracted once with 1 mL of MTBE and then centrifuged at 13000 rpm for 2 minutes at 4° C.; (3) supernatant (800 μL) was aspirated and dried with 96 holes nitrogen gas blowing; (4) the residue was dissolved with 150 μL of a mixture of methanol and water (v/v=1/1) and then mixed by vortexing; and (5) sampling: sample quantity was 8 μL.
# Preparation of standard sample was performed according to the following procedures: (1) a pre-determined amount of the compound stock solution was precisely measured, and then was diluted to standard series of solution with acetonitrile; (2) each of the standard solution (20 μL) prepared above was precisely measured and to each was added 180 μL of blank plasma; (3) each sample was mixed by vortexing to obtain series of standard samples in which the plasma concentration was 3, 5, 10, 30, 100, 300, 1000, 3000, 5000 or 10000 ng/mL; and (4) standard curve was established.
# The content of each test compound in rat plasma after administration was determined by LC/MS/MS.
# Noncompartmental analysis to calculate pharmacokinetic parameters was performed with WinNonlin 6.1 software.
# [4] = target: EGFR T790M (human epidermal growth factor receptor T790M mutation) (Homo sapiens (Human), UniProt P00533, T790M); assay: In vitro kinase inhibitory activity, EGFR T790M; format: biochemical
# Sequence of EGFR T790M (human epidermal growth factor receptor T790M mutation) (P00533 25-1210 T790M): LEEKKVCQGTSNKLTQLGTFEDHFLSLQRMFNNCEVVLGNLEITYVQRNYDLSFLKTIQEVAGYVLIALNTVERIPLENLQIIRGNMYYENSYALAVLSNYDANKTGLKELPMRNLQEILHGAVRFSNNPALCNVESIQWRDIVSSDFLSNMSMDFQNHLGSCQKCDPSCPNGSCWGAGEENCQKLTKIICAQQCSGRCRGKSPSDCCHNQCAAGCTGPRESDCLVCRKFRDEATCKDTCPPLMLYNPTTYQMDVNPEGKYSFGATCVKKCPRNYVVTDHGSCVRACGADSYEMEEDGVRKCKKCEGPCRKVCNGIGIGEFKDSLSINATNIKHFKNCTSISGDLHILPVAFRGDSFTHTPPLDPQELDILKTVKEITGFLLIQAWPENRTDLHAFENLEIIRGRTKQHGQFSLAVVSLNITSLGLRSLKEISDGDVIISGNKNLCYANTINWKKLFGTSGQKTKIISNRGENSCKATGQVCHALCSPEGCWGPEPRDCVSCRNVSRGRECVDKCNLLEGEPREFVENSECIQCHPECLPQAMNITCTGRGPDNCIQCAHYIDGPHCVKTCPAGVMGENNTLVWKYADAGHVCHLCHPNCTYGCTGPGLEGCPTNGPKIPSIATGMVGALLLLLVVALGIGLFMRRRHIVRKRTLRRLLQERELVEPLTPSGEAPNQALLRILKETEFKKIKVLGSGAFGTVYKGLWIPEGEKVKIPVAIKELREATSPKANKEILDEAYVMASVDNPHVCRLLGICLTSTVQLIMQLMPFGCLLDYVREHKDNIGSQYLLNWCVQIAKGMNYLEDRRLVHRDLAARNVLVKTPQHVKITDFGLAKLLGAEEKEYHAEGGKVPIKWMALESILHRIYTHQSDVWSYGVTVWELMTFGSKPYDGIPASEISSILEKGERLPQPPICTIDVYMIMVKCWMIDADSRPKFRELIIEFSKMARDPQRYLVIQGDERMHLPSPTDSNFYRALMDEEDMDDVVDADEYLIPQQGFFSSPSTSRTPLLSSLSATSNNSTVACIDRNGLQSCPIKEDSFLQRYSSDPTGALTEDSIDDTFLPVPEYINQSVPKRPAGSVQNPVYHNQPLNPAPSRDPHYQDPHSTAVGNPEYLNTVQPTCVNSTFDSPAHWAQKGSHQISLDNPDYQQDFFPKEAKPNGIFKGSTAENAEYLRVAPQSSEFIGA
# Description: as §1, §3, §4, §2
# [5] = iv(2 g/kg) [sic], method says 2 mg/kg
# [6] = po(5 g/kg) [sic], method says 5 mg/kg
# Sequence of HER2 (human epidermal growth factor receptor 2) (P04626 23-1255): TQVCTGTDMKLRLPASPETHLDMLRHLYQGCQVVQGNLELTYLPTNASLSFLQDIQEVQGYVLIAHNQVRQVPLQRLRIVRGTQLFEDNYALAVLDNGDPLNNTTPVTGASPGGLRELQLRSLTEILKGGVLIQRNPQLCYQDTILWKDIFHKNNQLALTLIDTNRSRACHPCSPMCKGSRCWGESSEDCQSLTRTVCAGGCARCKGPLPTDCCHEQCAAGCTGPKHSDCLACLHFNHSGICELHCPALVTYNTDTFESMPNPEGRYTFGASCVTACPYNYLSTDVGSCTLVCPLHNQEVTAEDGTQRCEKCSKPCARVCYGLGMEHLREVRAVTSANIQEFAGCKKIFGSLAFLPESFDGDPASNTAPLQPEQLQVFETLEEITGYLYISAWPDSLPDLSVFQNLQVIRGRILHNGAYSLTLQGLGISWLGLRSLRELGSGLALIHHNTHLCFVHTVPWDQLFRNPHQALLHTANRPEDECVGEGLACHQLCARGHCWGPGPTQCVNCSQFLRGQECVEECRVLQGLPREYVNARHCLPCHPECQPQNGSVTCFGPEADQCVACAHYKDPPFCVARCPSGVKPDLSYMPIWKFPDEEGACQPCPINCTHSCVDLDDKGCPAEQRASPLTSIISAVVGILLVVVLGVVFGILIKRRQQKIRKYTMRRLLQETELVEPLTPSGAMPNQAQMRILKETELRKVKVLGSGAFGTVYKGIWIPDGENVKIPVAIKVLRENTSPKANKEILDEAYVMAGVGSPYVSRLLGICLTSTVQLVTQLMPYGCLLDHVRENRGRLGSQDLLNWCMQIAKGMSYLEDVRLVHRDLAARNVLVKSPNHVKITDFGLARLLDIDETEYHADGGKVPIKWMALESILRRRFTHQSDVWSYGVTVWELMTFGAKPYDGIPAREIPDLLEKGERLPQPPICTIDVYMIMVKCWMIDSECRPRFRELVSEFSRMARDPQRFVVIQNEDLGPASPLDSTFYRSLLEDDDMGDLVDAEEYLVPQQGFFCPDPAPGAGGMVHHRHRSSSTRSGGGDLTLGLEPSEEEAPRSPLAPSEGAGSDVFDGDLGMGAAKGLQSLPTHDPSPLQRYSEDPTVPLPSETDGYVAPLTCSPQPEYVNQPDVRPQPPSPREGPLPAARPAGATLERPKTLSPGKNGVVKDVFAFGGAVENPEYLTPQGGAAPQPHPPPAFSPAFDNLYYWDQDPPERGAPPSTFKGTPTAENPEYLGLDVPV
SMILES,IC50 [1] [nM],IC50 [2] [nM],"AUC(0-t) [3, 5] [ng·h/mL]","Cmax [3, 5] [ng/mL]","half-life [3, 5] [h]","Vd [3, 5] [L/kg]",bioavailability [3] [%],"AUC(0-t) [3, 6] [ng·h/mL]","Cmax [3, 6] [ng/mL]","half-life [3, 6] [h]",IC50 [4] [nM]
"CCOc1cc2ncnc(Nc3ccc(OCc4ccccn4)c(Cl)c3)c2cc1NC(=O)/C=C/CN1C[C@@H]2OCCO[C@@H]2C1 [Example 24, (E)-N-(4-((3-Chloro-4-(pyridin-2-ylmethoxy)phenyl)amino)-7-ethoxyquinazolin-6-yl)-4-((4aR,7aS)-tetrahydro-2H-[1,4]dioxino[2,3-c]pyrrol-6(3H)-yl)but-2-enamide]",1.7,18.4,10500,2930,3.59,0.79,87.1,22900,2770,3.49,4.2
"O=C(/C=C/CN1C[C@@H]2OCCO[C@@H]2C1)Nc1cc2c(Nc3ccc(OCc4ccccn4)c(Cl)c3)ncnc2cc1O[C@H]1CCOC1 [Example 25, (E)-N-(4-((3-Chloro-4-(pyridin-2-ylmethoxy)phenyl)amino)-7-(((S)-tetrahydrofuran-3-yl)oxy)quinazolin-6-yl)-4-((4aR,7aS)-tetrahydro-2H-[1,4]dioxino[2,3-c]pyrrol-6(3H)-yl)but-2-enamide]",2.5,8.6,4530,4110,1.42,0.65,5.94,474,73,4.42,5.9
"COc1cc2ncnc(Nc3ccc4c(cnn4Cc4cccc(F)c4)c3)c2cc1NC(=O)/C=C/CN1C[C@@H]2OCCO[C@@H]2C1 [Example 27, (E)-N-(4-((1-(3-Fluorobenzyl)-1H-indazol-5-yl)amino)-7-methoxyquinazolin-6-yl)-4-((4aR,7aS)-tetra hydro-2H-[1,4]dioxin[2,3-c]pyrrol-6(3H)-yl)but-2-enamide]",2.2,7.9,1190,923,1.97,3.65,10.8,303,67.8,2.33,22.9
"CCOc1cc2ncnc(Nc3ccc4c(cnn4Cc4cccc(F)c4)c3)c2cc1NC(=O)/C=C/CN1C[C@@H]2OCCO[C@@H]2C1 [Example 28, (E)-N-(7-Ethoxy-4-((1-(3-fluorobenzyl)-1H-indazol-5-yl)amino)quinazolin-6-yl)-4-((4aR,7aS)-tetrahydro-2H-[1,4]dioxino[2,3-c]pyrrol-6(3H)-yl)but-2-enamide]",1.6,40.1,692,450,1.99,6.66,41.5,721,147,1.41,14.5
"COc1cc2ncnc(Nc3ccc(Cl)c(Cl)c3F)c2cc1NC(=O)/C=C/CN1C[C@@H]2OCCO[C@@H]2C1 [Example 31, (E)-N-(4-((3,4-Dichloro-2-fluorophenyl)amino)-7-methoxyquinazolin-6-yl)-4-((4aR,7aS)-tetrahydro-2H-[1,4]dioxino[2,3-c]pyrrol-6(3H)-yl)but-2-enamide]",9.1,2.1,2990,1210,3.66,2.58,93.5,6980,794,3.16,6.4
"CCOc1cc2ncnc(Nc3ccc(Cl)c(Cl)c3F)c2cc1NC(=O)/C=C/CN1C[C@@H]2OCCO[C@@H]2C1 [Example 32, (E)-N-(4-((3,4-Dichloro-2-fluorophenyl)amino)-7-ethoxyquinazolin-6-yl)-4-((4aR,7aS)-tetrahydro-2H-[1,4]dioxino[2,3-c]pyrrol-6(3H)-yl)but-2-enamide]",7,1.2,2170,1000,2.95,2.97,108,6220,748,2.97,4
"O=C(/C=C/CN1C[C@@H]2OCCO[C@@H]2C1)Nc1cc2c(Nc3ccc(Cl)c(Cl)c3F)ncnc2cc1O[C@H]1CCOC1 [Example 34, (E)-N-(4-((3,4-Dichloro-2-fluorophenyl)amino)-7-(((S)-tetrahydrofuran-3-yl)oxy)quinazolin-6-yl)-4-((4aR,7aS)-tetrahydro-2H-[1,4]dioxino[2,3-c]pyrrol-6(3H)-yl)but-2-enamide]",20.3,3.3,951,645,1.15,3.18,68.7,1550,378,1.4,7

# — patent US9556191B2, “Aminoquinazoline derivatives and their salts and methods of use thereof” (SUNSHINE LAKE PHARMA CO., LTD, priority 2013, dated 2017)
